Assay results taken from ChEMBL document CHEMBL3991601, “The target landscape of clinical kinase drugs” (Science, 2017).
The source made the active and inactive calls. Rule as the data show it, for most assays here: actives have a measured Kd and inactives only a lower limit.

Tests used:
[1] = biological target: T1, Serine/threonine-protein kinase D3 (Homo sapiens, UniProt O94806)
T1 sequence (O94806 whole entry): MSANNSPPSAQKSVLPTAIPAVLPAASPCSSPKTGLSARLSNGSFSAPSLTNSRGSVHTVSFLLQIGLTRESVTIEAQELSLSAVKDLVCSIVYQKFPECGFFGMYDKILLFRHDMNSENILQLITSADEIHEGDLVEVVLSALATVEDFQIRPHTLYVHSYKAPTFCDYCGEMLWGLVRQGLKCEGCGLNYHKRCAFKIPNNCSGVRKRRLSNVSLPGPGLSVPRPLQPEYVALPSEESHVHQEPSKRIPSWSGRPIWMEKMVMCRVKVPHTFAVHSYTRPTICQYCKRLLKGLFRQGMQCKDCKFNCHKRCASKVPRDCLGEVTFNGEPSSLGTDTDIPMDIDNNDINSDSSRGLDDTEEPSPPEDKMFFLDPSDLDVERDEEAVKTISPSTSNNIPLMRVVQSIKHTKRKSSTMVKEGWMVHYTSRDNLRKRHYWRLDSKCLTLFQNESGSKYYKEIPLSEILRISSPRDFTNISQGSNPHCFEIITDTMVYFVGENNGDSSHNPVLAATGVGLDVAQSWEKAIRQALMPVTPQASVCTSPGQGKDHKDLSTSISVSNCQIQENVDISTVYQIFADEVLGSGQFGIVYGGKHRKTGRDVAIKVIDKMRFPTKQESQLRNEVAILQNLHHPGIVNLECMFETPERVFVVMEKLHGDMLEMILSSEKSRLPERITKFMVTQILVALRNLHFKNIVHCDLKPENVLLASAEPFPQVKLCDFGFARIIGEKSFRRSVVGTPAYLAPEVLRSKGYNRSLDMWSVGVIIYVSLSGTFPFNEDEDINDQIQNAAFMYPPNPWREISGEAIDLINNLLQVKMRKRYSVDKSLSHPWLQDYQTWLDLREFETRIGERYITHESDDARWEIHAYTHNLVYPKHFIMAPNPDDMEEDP

[2] = biological target: RAC-gamma serine/threonine-protein kinase (Homo sapiens, UniProt Q9Y243)
ADP/ATP translocase 3 = biological target: T2, ADP/ATP translocase 3 (Homo sapiens, UniProt P12236)
T2 sequence (P12236 whole entry): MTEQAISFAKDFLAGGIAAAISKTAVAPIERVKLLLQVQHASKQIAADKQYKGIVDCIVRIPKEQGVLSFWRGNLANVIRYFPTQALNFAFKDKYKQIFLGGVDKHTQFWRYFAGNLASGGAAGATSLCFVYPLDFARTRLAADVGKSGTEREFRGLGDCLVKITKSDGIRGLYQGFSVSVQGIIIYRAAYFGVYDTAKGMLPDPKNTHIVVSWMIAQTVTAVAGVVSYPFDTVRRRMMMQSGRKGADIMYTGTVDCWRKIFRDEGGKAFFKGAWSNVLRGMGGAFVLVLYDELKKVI

[3] = biological target: T3, Serine/threonine-protein kinase Chk1 (Homo sapiens, UniProt O14757)
T3 sequence (O14757 whole entry): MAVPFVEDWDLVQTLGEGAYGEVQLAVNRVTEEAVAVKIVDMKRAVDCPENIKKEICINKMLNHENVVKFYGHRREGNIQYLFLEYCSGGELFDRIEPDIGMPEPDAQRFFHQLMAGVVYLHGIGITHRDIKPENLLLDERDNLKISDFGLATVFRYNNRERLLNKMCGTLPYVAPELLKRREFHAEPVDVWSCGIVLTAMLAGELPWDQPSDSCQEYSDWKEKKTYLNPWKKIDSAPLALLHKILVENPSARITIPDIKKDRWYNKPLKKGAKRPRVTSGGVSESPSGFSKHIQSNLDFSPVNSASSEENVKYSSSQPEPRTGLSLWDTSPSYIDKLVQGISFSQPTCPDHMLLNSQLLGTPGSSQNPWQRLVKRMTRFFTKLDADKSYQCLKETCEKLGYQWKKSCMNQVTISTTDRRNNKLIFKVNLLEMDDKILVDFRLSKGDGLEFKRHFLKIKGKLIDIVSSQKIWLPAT

[4] = biological target: Protein kinase C theta type (Homo sapiens, UniProt Q04759)
[5] = biological target: Serine/threonine-protein kinase 26 (Homo sapiens, UniProt Q9P289)
[6] = biological target: Protein kinase C delta type (Homo sapiens, UniProt Q05655)
Pyridoxal kinase = biological target: T4, Pyridoxal kinase (Homo sapiens, UniProt O00764)
T4 sequence (O00764 whole entry): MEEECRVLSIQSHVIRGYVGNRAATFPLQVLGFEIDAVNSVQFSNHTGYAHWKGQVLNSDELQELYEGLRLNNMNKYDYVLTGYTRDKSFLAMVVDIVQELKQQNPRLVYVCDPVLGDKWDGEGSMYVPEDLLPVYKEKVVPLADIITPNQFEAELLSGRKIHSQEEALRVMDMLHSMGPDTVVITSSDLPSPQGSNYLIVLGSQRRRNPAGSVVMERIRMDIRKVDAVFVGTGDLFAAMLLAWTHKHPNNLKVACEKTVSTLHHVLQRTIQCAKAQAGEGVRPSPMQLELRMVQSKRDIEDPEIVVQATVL

[7] = biological target: Tyrosine-protein kinase ABL1 (Homo sapiens, UniProt P00519)
Ephrin type-A receptor 4 = Ephrin type-A receptor 4 (Homo sapiens, UniProt P54764)
[8] = biological target: T5, Serine/threonine-protein kinase 4 (Homo sapiens, UniProt Q13043)
T5 sequence (Q13043 whole entry): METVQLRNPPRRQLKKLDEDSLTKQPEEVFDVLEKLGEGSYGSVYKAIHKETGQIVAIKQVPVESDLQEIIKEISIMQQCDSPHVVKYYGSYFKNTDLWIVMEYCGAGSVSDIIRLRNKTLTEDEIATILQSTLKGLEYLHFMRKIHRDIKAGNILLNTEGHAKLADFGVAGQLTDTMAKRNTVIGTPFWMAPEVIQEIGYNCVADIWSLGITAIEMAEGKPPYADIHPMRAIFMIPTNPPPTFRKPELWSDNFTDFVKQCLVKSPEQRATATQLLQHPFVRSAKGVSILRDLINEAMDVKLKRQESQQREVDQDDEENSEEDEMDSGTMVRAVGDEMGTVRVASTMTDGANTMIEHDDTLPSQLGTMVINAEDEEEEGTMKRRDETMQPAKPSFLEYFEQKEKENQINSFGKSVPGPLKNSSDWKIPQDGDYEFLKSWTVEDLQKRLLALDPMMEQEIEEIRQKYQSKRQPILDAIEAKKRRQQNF
Also: in the data inactive means no Kd found up to 30 µM.

Serine/threonine-protein kinase 26, sequence (Q9P289 whole entry): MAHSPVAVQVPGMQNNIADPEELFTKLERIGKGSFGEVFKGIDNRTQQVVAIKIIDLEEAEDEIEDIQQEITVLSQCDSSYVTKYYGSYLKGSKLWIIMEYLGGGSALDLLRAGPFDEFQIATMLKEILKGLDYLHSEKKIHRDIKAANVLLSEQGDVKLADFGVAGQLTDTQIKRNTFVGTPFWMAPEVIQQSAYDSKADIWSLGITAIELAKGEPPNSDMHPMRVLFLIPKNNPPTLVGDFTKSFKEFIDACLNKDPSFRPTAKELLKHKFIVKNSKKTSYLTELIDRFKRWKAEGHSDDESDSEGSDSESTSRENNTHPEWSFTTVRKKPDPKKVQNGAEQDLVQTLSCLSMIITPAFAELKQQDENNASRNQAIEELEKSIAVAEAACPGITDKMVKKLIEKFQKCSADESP
Ephrin type-A receptor 4, sequence (P54764 whole entry): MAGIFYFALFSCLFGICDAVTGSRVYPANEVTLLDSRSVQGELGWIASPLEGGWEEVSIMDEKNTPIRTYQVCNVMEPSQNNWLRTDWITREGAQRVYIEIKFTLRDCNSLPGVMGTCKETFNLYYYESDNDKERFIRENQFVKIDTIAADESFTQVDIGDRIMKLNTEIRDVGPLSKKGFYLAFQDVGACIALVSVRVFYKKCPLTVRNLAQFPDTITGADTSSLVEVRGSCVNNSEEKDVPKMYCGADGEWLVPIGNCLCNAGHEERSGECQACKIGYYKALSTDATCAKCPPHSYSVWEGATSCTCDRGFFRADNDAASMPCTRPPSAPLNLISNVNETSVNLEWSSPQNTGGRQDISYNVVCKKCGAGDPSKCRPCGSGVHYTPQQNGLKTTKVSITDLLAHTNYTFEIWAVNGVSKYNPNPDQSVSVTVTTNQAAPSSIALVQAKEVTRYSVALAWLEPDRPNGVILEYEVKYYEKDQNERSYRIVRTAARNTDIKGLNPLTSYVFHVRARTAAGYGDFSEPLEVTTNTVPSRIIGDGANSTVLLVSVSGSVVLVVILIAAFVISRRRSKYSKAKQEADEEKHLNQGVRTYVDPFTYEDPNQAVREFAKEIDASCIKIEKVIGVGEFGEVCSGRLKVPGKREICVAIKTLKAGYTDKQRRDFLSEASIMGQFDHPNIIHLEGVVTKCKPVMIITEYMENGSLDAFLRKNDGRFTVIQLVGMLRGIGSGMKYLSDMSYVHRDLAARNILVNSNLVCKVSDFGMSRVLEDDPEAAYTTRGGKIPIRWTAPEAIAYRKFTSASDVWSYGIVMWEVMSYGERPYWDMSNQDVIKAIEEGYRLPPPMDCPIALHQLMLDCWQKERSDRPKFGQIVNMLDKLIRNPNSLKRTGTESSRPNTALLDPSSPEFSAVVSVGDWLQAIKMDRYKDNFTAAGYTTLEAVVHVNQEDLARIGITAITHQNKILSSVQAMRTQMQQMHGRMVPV
Protein kinase C delta type, sequence (Q05655 whole entry): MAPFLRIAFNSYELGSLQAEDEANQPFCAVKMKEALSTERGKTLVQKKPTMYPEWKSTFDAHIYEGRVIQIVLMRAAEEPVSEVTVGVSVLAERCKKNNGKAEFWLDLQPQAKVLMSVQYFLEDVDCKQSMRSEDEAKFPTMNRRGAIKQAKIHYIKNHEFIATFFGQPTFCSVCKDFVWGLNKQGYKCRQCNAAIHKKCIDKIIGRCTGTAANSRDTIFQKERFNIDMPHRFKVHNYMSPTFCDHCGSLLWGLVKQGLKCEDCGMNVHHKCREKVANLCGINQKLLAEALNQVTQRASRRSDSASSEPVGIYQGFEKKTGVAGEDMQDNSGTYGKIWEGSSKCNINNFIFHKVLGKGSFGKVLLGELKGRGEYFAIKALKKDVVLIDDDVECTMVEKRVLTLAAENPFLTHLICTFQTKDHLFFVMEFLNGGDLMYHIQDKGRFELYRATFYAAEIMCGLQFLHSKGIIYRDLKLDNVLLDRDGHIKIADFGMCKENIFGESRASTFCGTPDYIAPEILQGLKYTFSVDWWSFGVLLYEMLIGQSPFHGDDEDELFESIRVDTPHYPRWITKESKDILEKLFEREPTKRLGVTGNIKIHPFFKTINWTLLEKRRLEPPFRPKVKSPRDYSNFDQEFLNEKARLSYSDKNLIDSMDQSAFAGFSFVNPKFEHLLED
RAC-gamma serine/threonine-protein kinase, sequence (Q9Y243 whole entry): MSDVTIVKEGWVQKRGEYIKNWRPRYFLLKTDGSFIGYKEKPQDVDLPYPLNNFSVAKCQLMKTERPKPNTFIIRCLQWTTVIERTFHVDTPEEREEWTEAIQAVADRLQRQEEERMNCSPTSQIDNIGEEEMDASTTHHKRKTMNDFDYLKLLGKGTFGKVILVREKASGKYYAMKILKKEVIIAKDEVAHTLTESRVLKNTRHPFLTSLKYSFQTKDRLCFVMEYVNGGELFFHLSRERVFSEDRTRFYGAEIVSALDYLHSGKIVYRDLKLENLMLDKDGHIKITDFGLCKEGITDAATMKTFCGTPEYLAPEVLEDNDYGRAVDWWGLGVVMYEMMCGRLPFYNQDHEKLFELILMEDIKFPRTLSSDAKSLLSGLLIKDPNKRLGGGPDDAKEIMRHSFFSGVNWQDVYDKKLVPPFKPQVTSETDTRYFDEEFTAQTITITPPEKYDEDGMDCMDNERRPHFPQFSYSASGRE
Tyrosine-protein kinase ABL1, sequence (P00519 whole entry): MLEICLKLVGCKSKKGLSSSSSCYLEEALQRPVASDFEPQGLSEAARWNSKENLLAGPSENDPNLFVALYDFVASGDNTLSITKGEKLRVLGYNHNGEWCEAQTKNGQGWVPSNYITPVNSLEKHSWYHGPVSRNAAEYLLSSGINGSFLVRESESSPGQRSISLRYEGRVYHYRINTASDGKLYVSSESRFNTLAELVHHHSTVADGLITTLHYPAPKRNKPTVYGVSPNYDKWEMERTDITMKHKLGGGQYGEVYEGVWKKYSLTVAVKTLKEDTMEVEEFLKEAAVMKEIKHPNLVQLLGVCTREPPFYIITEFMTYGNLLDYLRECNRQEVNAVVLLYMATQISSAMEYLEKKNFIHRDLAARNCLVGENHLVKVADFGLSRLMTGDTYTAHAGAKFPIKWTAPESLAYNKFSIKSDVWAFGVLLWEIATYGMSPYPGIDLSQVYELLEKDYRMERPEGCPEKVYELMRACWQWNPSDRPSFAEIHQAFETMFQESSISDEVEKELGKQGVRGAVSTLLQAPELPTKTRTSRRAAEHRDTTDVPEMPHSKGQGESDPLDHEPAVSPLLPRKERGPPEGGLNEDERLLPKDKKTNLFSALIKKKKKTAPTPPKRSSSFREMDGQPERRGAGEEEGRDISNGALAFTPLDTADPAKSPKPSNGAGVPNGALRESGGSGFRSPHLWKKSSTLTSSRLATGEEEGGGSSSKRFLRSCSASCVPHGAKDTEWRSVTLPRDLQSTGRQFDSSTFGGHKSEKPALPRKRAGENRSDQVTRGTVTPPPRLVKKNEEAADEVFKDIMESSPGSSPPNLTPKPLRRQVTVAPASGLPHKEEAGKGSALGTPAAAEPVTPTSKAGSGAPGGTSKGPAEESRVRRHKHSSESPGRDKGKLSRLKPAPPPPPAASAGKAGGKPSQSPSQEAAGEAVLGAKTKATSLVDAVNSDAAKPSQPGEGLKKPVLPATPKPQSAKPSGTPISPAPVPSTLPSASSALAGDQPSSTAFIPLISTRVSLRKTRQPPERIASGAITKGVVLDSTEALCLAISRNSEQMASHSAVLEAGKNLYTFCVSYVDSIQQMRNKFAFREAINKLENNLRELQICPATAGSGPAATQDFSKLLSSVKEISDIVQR
Protein kinase C theta type, sequence (Q04759 whole entry): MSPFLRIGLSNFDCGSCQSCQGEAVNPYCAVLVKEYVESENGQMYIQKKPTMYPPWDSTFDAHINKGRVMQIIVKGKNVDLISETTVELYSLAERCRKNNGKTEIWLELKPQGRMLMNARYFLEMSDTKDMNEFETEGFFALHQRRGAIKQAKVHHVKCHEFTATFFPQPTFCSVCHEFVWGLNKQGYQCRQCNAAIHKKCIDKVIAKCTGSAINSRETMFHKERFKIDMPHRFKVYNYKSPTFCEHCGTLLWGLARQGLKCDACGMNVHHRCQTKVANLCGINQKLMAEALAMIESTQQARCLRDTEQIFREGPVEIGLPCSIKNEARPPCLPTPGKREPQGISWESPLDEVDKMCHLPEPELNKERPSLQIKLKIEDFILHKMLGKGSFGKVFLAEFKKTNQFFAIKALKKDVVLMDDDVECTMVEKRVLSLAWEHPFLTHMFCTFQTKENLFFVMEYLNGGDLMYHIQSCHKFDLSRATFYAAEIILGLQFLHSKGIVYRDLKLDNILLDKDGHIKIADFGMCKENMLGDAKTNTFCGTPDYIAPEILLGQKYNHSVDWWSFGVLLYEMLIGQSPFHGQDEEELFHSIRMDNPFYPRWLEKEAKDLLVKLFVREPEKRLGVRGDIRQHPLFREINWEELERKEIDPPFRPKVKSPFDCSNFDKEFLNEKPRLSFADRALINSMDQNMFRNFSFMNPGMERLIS

CN1C/C=C/CCOc2cccc(c2)-c2ccnc(n2)Nc2cccc(c2)C1 [ZOTIRACICLIB]
Kd [1]: 0.557 µM (active)
Kd [2]: > 30 µM (inactive)
Kd (ADP/ATP translocase 3): > 30 µM (inactive)
Kd [3]: > 30 µM (inactive)
Kd [4]: > 30 µM (inactive)
Kd [5]: > 30 µM (inactive)
Kd [6]: 0.996 µM (active)
Kd (Pyridoxal kinase): > 30 µM (inactive)
Kd [7]: 32.2 µM
Kd (Ephrin type-A receptor 4): > 30 µM (inactive)
Kd [8]: 1.8 µM (active)
